Test results taken from patent US11992013B2, “Feral hog toxicant” (priority 2019, dated 2024).

Tests used:
[1] = neutral or acidic pH; cited from earlier work
[2] = tested on: methemoglobin reductase (MR); assay: Inhibition of methemoglobin reductase (MR) by luteolin; assay type: biochemical; conditions: assuming about 65 mL blood per kilogram body mass in the pig; no experimental data
Source text: An optional embodiment enhances the effective of sodium nitrite by incorporating the flavonoid luteolin into a bait. Luteolin is found in botanical sources including celery, broccoli, green pepper, parsley, thyme, dandelion, perilla, chamomile, carrots, olive oil, peppermint, rosemary, oranges and other citrus, oregano, and certain palm seeds. The mechanism of sodium nitrite toxicity is to oxidize hemoglobin in the blood to methemoglobin, converting the iron atom from the ferrous form to the ferric form. Methemoglobin has a poor ability to transport oxygen to cells. Methemoglobin is naturally present in mammalian blood at 1-2% of total hemoglobin, a level that is ordinarily tempered by the enzyme methemoglobin reductase (MR). […] Because hogs have a poor ability to detoxify methemoglobin build-up, they are inherently more prone to developing high concentrations of methemoglobin upon exposure to sodium nitrite, which can quickly lead to death. In an optional embodiment, this physiology is further exploited by incorporating MR inhibitors into the bait, thus facilitating control of feral hogs while releasing less total nitrite into the environment. Luteolin is a highly-potent, commercially-available, naturally-occurring, tasteless MR inhibitor. Adding small amounts of luteolin to a nitrite-containing bait will reduce a hog's ability to detoxify methemoglobin. […]

[3] = target: methemoglobin reductase (MR); conditions: MR inhibitor; cited from earlier work
feral hogs = assay: Vomiting after toxicant baits are consumed; assay type: in vivo, Sus scrofa; conditions: preliminary results
Source text: Another difficulty of using sodium nitrite as a toxicant is that feral hogs can sometimes vomit the baits. The acidic decomposition of sodium nitrite in gastric juices can lead to the release of noxious, gaseous by-products that can induce vomiting. This tendency can be counteracted by incorporating into the bait antiemetic compounds, antacid compounds, or both. Antacids include such compounds as sodium carbonate, sodium bicarbonate, calcium carbonate, magnesium hydroxide, magnesium carbonate, potassium carbonate, amines (e.g. from fish), and potassium bicarbonate. Antacids such as sodium carbonate also help maintain a higher pH level before the bait is consumed. Then after consumption the antacids can help neutralize gastric acid, both inhibiting the breakdown of sodium nitrite in vivo, and also helping to reduce vomiting. […] Anti-emetics can also be employed, for example taste-free ginger extracts containing gingerols. […] Gingerols have the same mechanism of action as drugs such as Zofran (ondansetron), which are prescribed in humans for the treatment of severe, chemotherapy-induced nausea. Other anti-emetics known in the art may also be used.

adult hogs = conditions: cited from earlier work

## O=c1cc(-c2ccc(O)c(O)c2)oc2cc(O)cc(O)c12 [luteolin]
[1]
  water solubility: poorly soluble
[2]
  amount of luteolin needed for 50% inhibition of the MR enzyme: ~2 micrograms per kilogram body mass
[3]
  IC50: ~110 nM

## O=C([O-])[O-].[Na+].[Na+] [sodium carbonate]
Feral hogs
  effect on vomiting after toxicant baits are consumed: effective in reducing vomiting

## O=NO [sodium nitrite]
Adult hogs
  LD90: about 189 mg/kg
